Measured values from BindingDB's records for doi:10.1016/S0960-894X(01)80247-X (1994).

How the values were obtained:
[1] = target: T1, Endothelin receptor type B (Rattus norvegicus, UniProt P21451); test: Concentration required to produce 50% inhibition of binding against ET B receptor obtained from rat brain membrane
T1 sequence (P21451 whole entry): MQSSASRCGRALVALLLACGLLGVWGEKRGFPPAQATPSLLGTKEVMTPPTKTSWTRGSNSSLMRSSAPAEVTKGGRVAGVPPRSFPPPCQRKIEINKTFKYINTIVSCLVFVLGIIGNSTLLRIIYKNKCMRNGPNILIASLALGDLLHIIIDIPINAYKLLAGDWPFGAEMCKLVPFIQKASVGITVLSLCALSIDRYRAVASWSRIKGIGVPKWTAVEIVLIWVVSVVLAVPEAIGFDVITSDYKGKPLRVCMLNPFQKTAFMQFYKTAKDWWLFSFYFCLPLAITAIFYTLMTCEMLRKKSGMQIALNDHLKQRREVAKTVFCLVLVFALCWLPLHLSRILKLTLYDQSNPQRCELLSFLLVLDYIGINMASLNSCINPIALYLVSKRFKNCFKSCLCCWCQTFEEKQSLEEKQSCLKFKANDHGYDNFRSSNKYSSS

Endothelin-1 receptor = target: T2, Endothelin-1 receptor (Rattus norvegicus, UniProt P26684); test: Concentration required to produce 50% inhibition of binding against ET A receptor obtained from rat thoracic aortic membrane
T2 sequence (P26684 whole entry): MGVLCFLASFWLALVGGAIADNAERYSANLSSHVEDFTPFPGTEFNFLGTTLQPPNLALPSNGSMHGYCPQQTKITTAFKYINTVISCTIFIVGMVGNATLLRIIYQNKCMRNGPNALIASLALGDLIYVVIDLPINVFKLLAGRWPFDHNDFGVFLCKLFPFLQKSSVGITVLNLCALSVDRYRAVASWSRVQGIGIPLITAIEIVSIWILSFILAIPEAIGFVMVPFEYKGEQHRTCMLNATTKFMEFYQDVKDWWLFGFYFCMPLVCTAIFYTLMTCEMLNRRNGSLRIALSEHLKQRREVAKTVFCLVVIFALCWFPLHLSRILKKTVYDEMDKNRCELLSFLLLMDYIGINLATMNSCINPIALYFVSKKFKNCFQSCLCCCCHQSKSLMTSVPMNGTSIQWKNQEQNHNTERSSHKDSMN

CCC(CC)C[C@@H](NC(=O)[C@@H](NC(=O)[C@H](CC(=O)O)NC(=O)[C@H](CC(C)C)NC(=O)[C@H](Cc1cnc[nH]1)NC(=O)[C@H](CS)NC(=O)[C@H](Cc1ccccc1)NC(=O)[C@H](Cc1ccc(O)cc1)NC(=O)[C@@H](NC(=O)[C@H](CS)NC(=O)[C@H](CCC(=O)O)NC(=O)[C@H](CCCCN)NC(=O)[C@H](CC(=O)O)NC(=O)[C@H](CCSC)NC(=O)[C@H](CC(C)C)NC(=O)[C@H](CO)NC(=O)[C@H](CO)NC(=O)[C@H](CS)NC(=O)[C@H](CO)NC(=O)[C@@H](N)CS)C(C)C)[C@H](C)CC)C(=O)N[C@@H](Cc1c[nH]c2ccccc12)C(=O)O [Endothelin-1 analogue]
pIC50 [1]: 9.78 | pIC50 (Endothelin-1 receptor): 8.06

CC[C@@H](C)[C@@H](NC(=O)[C@@H](NC(=O)[C@H](CC(=O)O)NC(=O)[C@H](CC(C)C)NC(=O)[C@H](Cc1cnc[nH]1)NC(=O)[C@H](CS)NC(=O)[C@H](Cc1ccccc1)NC(=O)[C@H](Cc1ccc(O)cc1)NC(=O)[C@@H](NC(=O)[C@H](CS)NC(=O)[C@H](CCC(=O)O)NC(=O)[C@H](CCCCN)NC(=O)[C@H](CC(=O)O)NC(=O)[C@H](CCSC)NC(=O)[C@H](CC(C)C)NC(=O)[C@H](CO)NC(=O)[C@H](CO)NC(=O)[C@H](CS)NC(=O)[C@H](CO)NC(=O)[C@@H](N)CS)C(C)C)[C@@H](C)CC)C(=O)N[C@@H](Cc1c[nH]c2ccccc12)C(=O)O [Endothelin-1 analogue]
pIC50 (Endothelin-1 receptor): 7.59

CC[C@@H](C)[C@H](NC(=O)[C@H](CC(=O)O)NC(=O)[C@H](CC(C)C)NC(=O)[C@H](Cc1cnc[nH]1)NC(=O)[C@H](CS)NC(=O)[C@H](Cc1ccccc1)NC(=O)[C@H](Cc1ccc(O)cc1)NC(=O)[C@@H](NC(=O)[C@H](CS)NC(=O)[C@H](CCC(=O)O)NC(=O)[C@H](CCCCN)NC(=O)[C@H](CC(=O)O)NC(=O)[C@H](CCSC)NC(=O)[C@H](CC(C)C)NC(=O)[C@H](CO)NC(=O)[C@H](CO)NC(=O)[C@H](CS)NC(=O)[C@H](CO)NC(=O)[C@@H](N)CS)C(C)C)C(=O)N[C@@H](C(=O)N[C@@H](Cc1c[nH]c2ccccc12)C(=O)O)C(C)C [Endothelin-1 analogue]
pIC50 [1]: 9.05 | pIC50 (Endothelin-1 receptor): 9

CC[C@@H](C)[C@H](NC(=O)[C@H](CC(=O)O)NC(=O)[C@H](CC(C)C)NC(=O)[C@H](Cc1cnc[nH]1)NC(=O)[C@H](CS)NC(=O)[C@H](Cc1ccccc1)NC(=O)[C@H](Cc1ccc(O)cc1)NC(=O)[C@@H](NC(=O)[C@H](CS)NC(=O)[C@H](CCC(=O)O)NC(=O)[C@H](CCCCN)NC(=O)[C@H](CC(=O)O)NC(=O)[C@H](CCSC)NC(=O)[C@H](CC(C)C)NC(=O)[C@H](CO)NC(=O)[C@H](CO)NC(=O)[C@H](CS)NC(=O)[C@H](CO)NC(=O)[C@@H](N)CS)C(C)C)C(=O)N[C@H](CC(C)C)C(=O)N[C@@H](Cc1c[nH]c2ccccc12)C(=O)O [Endothelin-1 analogue]
pIC50 [1]: 9.94 | pIC50 (Endothelin-1 receptor): 7.97

CC[C@@H](C)[C@H](NC(=O)[C@H](CC(=O)O)NC(=O)[C@H](CC(C)C)NC(=O)[C@H](Cc1cnc[nH]1)NC(=O)[C@H](CS)NC(=O)[C@H](Cc1ccccc1)NC(=O)[C@H](Cc1ccc(O)cc1)NC(=O)[C@@H](NC(=O)[C@H](CS)NC(=O)[C@H](CCC(=O)O)NC(=O)[C@H](CCCCN)NC(=O)[C@H](CC(=O)O)NC(=O)[C@H](CCSC)NC(=O)[C@H](CC(C)C)NC(=O)[C@H](CO)NC(=O)[C@H](CO)NC(=O)[C@H](CS)NC(=O)[C@H](CO)NC(=O)[C@@H](N)CS)C(C)C)C(=O)N[C@H](CCC(N)=O)C(=O)N[C@@H](Cc1c[nH]c2ccccc12)C(=O)O [Endothelin-1 analogue]
pIC50 [1]: 5.59 | pIC50 (Endothelin-1 receptor): 5.27

CC[C@H](C)[C@H](NC(=O)[C@H](CC(=O)O)NC(=O)[C@H](CC(C)C)NC(=O)[C@H](Cc1cnc[nH]1)NC(=O)[C@H](CS)NC(=O)[C@H](Cc1ccccc1)NC(=O)[C@H](Cc1ccc(O)cc1)NC(=O)[C@@H](NC(=O)[C@H](CS)NC(=O)[C@H](CCC(=O)O)NC(=O)[C@H](CCCCN)NC(=O)[C@H](CC(=O)O)NC(=O)[C@H](CCSC)NC(=O)[C@H](CC(C)C)NC(=O)[C@H](CO)NC(=O)[C@H](CO)NC(=O)[C@H](CS)NC(=O)[C@H](CO)NC(=O)[C@@H](N)CS)C(C)C)C(=O)N[C@@H](C(=O)N[C@@H](Cc1c[nH]c2ccccc12)C(=O)O)C1CCCCC1 [Endothelin-1 analogue]
pIC50 [1]: 9.59 | pIC50 (Endothelin-1 receptor): 7.04

CC[C@H](C)[C@H](NC(=O)[C@H](CC(=O)O)NC(=O)[C@H](CC(C)C)NC(=O)[C@H](Cc1cnc[nH]1)NC(=O)[C@H](CS)NC(=O)[C@H](Cc1ccccc1)NC(=O)[C@H](Cc1ccc(O)cc1)NC(=O)[C@@H](NC(=O)[C@H](CS)NC(=O)[C@H](CCC(=O)O)NC(=O)[C@H](CCCCN)NC(=O)[C@H](CC(=O)O)NC(=O)[C@H](CCSC)NC(=O)[C@H](CC(C)C)NC(=O)[C@H](CO)NC(=O)[C@H](CO)NC(=O)[C@H](CS)NC(=O)[C@H](CO)NC(=O)[C@@H](N)CS)C(C)C)C(=O)N[C@@H](C(=O)N[C@@H](Cc1c[nH]c2ccccc12)C(=O)O)c1ccccc1 [Endothelin-1 analogue]
pIC50 [1]: 8.6 | pIC50 (Endothelin-1 receptor): 6.85

CC[C@H](C)[C@H](NC(=O)[C@H](CC(=O)O)NC(=O)[C@H](CC(C)C)NC(=O)[C@H](Cc1cnc[nH]1)NC(=O)[C@H](CS)NC(=O)[C@H](Cc1ccccc1)NC(=O)[C@H](Cc1ccc(O)cc1)NC(=O)[C@@H](NC(=O)[C@H](CS)NC(=O)[C@H](CCC(=O)O)NC(=O)[C@H](CCCCN)NC(=O)[C@H](CC(=O)O)NC(=O)[C@H](CCSC)NC(=O)[C@H](CC(C)C)NC(=O)[C@H](CO)NC(=O)[C@H](CO)NC(=O)[C@H](CS)NC(=O)[C@H](CO)NC(=O)[C@@H](N)CS)C(C)C)C(=O)N[C@@H](Cc1c[nH]c2ccccc12)C(=O)N[C@@H](Cc1c[nH]c2ccccc12)C(=O)O [Endothelin-1 analogue]
pIC50 [1]: 9.77 | pIC50 (Endothelin-1 receptor): 6.71

CC[C@H](C)[C@H](NC(=O)[C@H](CC(=O)O)NC(=O)[C@H](CC(C)C)NC(=O)[C@H](Cc1cnc[nH]1)NC(=O)[C@H](CS)NC(=O)[C@H](Cc1ccccc1)NC(=O)[C@H](Cc1ccc(O)cc1)NC(=O)[C@@H](NC(=O)[C@H](CS)NC(=O)[C@H](CCC(=O)O)NC(=O)[C@H](CCCCN)NC(=O)[C@H](CC(=O)O)NC(=O)[C@H](CCSC)NC(=O)[C@H](CC(C)C)NC(=O)[C@H](CO)NC(=O)[C@H](CO)NC(=O)[C@H](CS)NC(=O)[C@H](CO)NC(=O)[C@@H](N)CS)C(C)C)C(=O)N[C@H](C(=O)N[C@@H](Cc1c[nH]c2ccccc12)C(=O)O)[C@@H](C)CC [Endothelin-1 analogue]
pIC50 (Endothelin-1 receptor): 9.93

CC[C@H](C)[C@H](NC(=O)[C@H](CC(=O)O)NC(=O)[C@H](CC(C)C)NC(=O)[C@H](Cc1cnc[nH]1)NC(=O)[C@H](CS)NC(=O)[C@H](Cc1ccccc1)NC(=O)[C@H](Cc1ccc(O)cc1)NC(=O)[C@@H](NC(=O)[C@H](CS)NC(=O)[C@H](CCC(=O)O)NC(=O)[C@H](CCCCN)NC(=O)[C@H](CC(=O)O)NC(=O)[C@H](CCSC)NC(=O)[C@H](CC(C)C)NC(=O)[C@H](CO)NC(=O)[C@H](CO)NC(=O)[C@H](CS)NC(=O)[C@H](CO)NC(=O)[C@@H](N)CS)C(C)C)C(=O)N[C@H](C(=O)N[C@@H](Cc1c[nH]c2ccccc12)C(=O)O)c1ccccc1 [Endothelin-1 analogue]
pIC50 [1]: 9.76 | pIC50 (Endothelin-1 receptor): 8.89
